Measured values published in US20100292306A1, “Compositions And Methods For The Treatment Of Muscular Dystrophy” (priority 2005, published 2010).
Entries after “also recorded” stand apart in the source; their conditions may differ.

Key:
mdx mice = test: Noninvasive whole body tension (WBT) measurement of forward pulling tensions; type: in vivo
Text: FIG. 18 presents individual “forward pulling tensions” (FPTs; upward deflections) recorded from a PDTC-treated mouse (Series 2) using the whole body tension (WBT) technique (Carlson and Makiejus, 1990). The rank order of FPTs from highest to lowest is indicated by the numbers in the figure. […] In the Series 2 experiments, WBT measurements were obtained from each of the saline-injected and PDTC-injected mice on days 0, 9, 21 and 40 of the experiment.
As a first step in examining the potential effects of PDTC treatment on WBT tension development, the slope of the decline in FPTs was evaluated for each recording session for each mouse examined in the Series 2 experiments (FIG. 19A, 19B). This measure essentially provides a “fatigue index” (FI) since the slope of the decline in FPTs is a direct measure of the average magnitude of the decline in FPT per individual pull for rank-ordered pulls number 2 through 10. If 10 individual pulls obtained during the recording session have identical magnitudes representing the highest FPT, then the FI equals 0. In contrast, a 50% reduction in FPT per pull would produce an FI equal to −0.5.
To examine the potential effect of PDTC treatment on FI in age matched adult mdx mice, a pre-treatment FU was obtained during a typical recording session from each of 10 mdx mice used in the Series 2 investigations (age 9.5 to 16 months at beginning of study). Five of the mice were subsequently treated with daily injections of vehicle (HEPES buffered Ringer's solution) and 5 of the mice were treated with daily injections of 50 mg/kg PDTC. Recordings for each of the mice were subsequently obtained on days 9, 21, and 40 of the treatment period (e.g., FIG. 19). To determine the potential effects of treatment on FI, the FIs obtained on days 9, 21, and 40 (e.g., FIG. 19) were each normalized to the pre-treatment FI for each of the 10 mice used in the study. […] A decrease in the FI indicating a reduction in the average loss of tension per pull during the course of the study would produce normalized FIs less than one, no change in FI would be associated with normalized FIs equal to 1.0, and increases in FI would produce normalized FIs greater than 1.0.
Mdx (C57 Bl10-mdx) and nondystrophic (C57Bl10-SnJ) mice were obtained from Jackson laboratories and bred under conditions approved by the Institutional Animal Care and Use Committee (IACUC). All studies were performed in accordance with the guidelines provided by the IACUC. Male and female PDTC treated mdx mice received daily intraperitoneal (ip) injections of 50 mg/kg pyrollidine dithiocarbamate (PDTC; Sigma P8765) dissolved in sterile-filtered (0.2 μm) HEPES-buffered Ringers solution (147.5 mM NaCl, 5 mM KCl, 2 mM CaCl2, 11 mM glucose, 5 mM Hepes, pH 7.35). Age- and gender-matched groups of vehicle-treated mice received corresponding injections of HEPES Ringers. See Carlson et al., 2005. The PDTC experiments were conducted on two series of mature adult mdx mice (9.5-16 month; 19-20 months) and on a series of young adult (1 month) mice. In each case, the mice in the experimental and vehicle-treated groups were matched according to age and gender with an equal number of males and females in each group. WBT tension measurements were obtained prior to initiating treatment and on multiple occasions following at least 3 weeks (20 days) of treatment.
A group of 30 day-old mdx mice were exposed to daily ip injections (30 day) of 40 mg/kg UDCA (Sigma #5127; 2 mg/ml; N=12 experimental) in an isotonic saline vehicle (1.02% NaCl, pH 8.4,) or a synthetic taurine derivative of UDCA (tauroursodeoxycholic acid, TUDCA, SpA Laboratorio Farmacologico, Cenate Sotto, Italy; 6 mg/ml; N=4 experimental) administered in a saline vehicle (NaCl 6 g/l, KCl 0.3 g/l, CaCl2 0.2 g/l, Na acetate 4 g/l, 300 mosM/l, pH 6.1).
WBT measurements were obtained as indicated in Examples 5 through 7 by placing an approximately 0.5 inch square piece of adhesive tape around the tail about 1 inch from the tip. […]

[1] = tested on: mdx triangularis sterni (TS) muscle; test: Histological cross sections of mdx TS muscle (fiber number, diameter, density, myonuclei, centronucleation); type: in vivo, mdx mice; conditions: 50 mg/kg daily 30 days from 30 days of age, read at 60 days; p<0.001
[2] = individual 6 month mdx male, 50 mg/kg for 30 days (FIG. 34C)
[3] = mature mdx, Series 2 through 4, post-treatment (at least 20 days), p<0.05
[4] = mature mdx, Series 2 through 4, p<0.05

S=C(S)N1CCCC1 [PDTC, pyrrolidine dithiocarbamate]
functional reserve FR (WBT10/WBT5) (mdx mice; 50 mg/kg 30 consecutive days from about 30 days of age, at 60 days): approximately 0.9 | normalized fatigue index (FI), effect of treatment over days (mdx mice; Series 2, 50 mg/kg daily, Kruskal-Wallis p<0.05, Day 0 vs Day 9 and Day 40): significant effect | normalized FI vs vehicle-injected (mdx mice; Series 2, Day 40, p<0.05): significantly different | fatigue index (FI), combined post-treatment results (mdx mice; Series 2, Days 9, 21 and 40 combined, p<0.05 vs vehicle): reducing; also recorded: reduces | normalized FI vs vehicle-injected (mdx mice; Series 2, Days 9 and 21): failed to reach significance | FPT10 as percent of FPT1 (mdx mice; [2]): approximately 77% | maximum FPT (mdx mice; [2]): approximately 310 g | whole body strength (mdx mice; mature mdx mice): significantly increasing | WBT5 vs vehicle-injected (mdx mice; [3]): elevated | WBT10 vs vehicle-injected (mdx mice; [3]): elevated | FR (WBT10/WBT5) post-treatment vs pre-treatment (mdx mice; [4]): increased | WBT10 post-treatment vs pre-treatment (mdx mice; [4]): increased | increase in WBT5 relative to vehicle (mdx mice; young mdx, 60 days of age): did not reach statistical significance | increase in WBT10 relative to vehicle (mdx mice; young mdx, 60 days of age): did not reach statistical significance | FR relative to vehicle-injected mdx mice (mdx mice; young mdx, 60 days of age, p<0.01): increased; also recorded: prevents a decline | percent centronucleation [1]: reduced; also recorded: significantly reduces
